Patent publication US6538037B2, “Methods for preparation and use of 1α,24(S)-dihydroxyvitamin D2” (Bone Care International, Inc., priority 1991, dated 2003)

Assays:
[1] = Blood metabolite levels in osteoporotic women administered 1α-OH-D2; type: in vivo, human
Method: An increase in the production of 1α,24(S)-(OH)2D2 relative to 1α,25-(OH)2D2 has also been observed by the present inventors in human females who received 1α-OH-D2 as part of an investigation of that drug for the treatment of osteoporosis. Following either a single dose of 2 μg of 1α-OH-D2 or daily doses of 8 μg/day for one week, blood was collected and analyzed for the metabolites 1α,24(S)-(OH)2D2 and 1α,25-(OH)2D2. Lipid was extracted from the blood, and the metabolites were purified by HPLC using standard methods and quantified with the radioreceptor assay produced by Incstar (Stillwater, Minn.). One day after a single 2 μg dose, the level of 1α,24(S)-(OH)2D2 was undetectable with the 1α,25-(OH)2D2 level being approximately 11 pg/ml. In contrast, one day following the last dose of 8 μg, the level of 1α,24(S)-(OH)2D2 averaged 9 pg/mL with the 1α,25-(OH)2D2 level averaging 30 pg/mL.

[2] = Dose ranging study in postmenopausal osteoporotic women; type: in vivo, human; details: oral 0.5 to 8.0 μg/day, five weeks
Method: Twenty postmenopausal osteoporotic women are enrolled in an open label study.
In admission to the study, all patients receive instruction on selecting a daily diet containing 400 to 600 mg of calcium. Compliance to this diet is verified at weekly intervals by 24-hour food records and by interviews with each patient.
All patients complete a one-week baseline period, a five-week treatment period, and a one-week post-treatment observation period. During the treatment period, patients orally self-administer 1α,24(S)-dihydroxyvitamin D2 at an initial dose of 0.5 μg/day for the first week, and at successively higher doses of 1.0, 2.0, 4.0, and 8.0 μg/day in each of the following four weeks. All doses are administered before breakfast.
Blood and urine chemistries are monitored on a weekly basis throughout the study. Key blood chemistries include fasting serum levels of calcium, phosphorus, osteocalcin, creatinine, and blood urea nitrogen. Key urine chemistries include 24-hour excretion of calcium, phosphorus, and creatinine.

[3] = system: HL-60 promyelocytes; assay: HL-60 cell differentiation assay; type: cell-based; details: dose-response study
Method: A dose-response study is conducted with 1α,24(S)-(OH)2D2 in the HL-60 cell differentiation assay as described by DeLuca and Ostrom (DeLuca, H. F. and Ostrem, V. K., Prog. Clin. Biol. Res., vol. 259, pp. 41-55 (1988)). In this study, 1α,25-(OH)2D3 is used as a positive control and appropriate solvents are used as negative controls. The following variables are evaluated: nonspecific acid esterase activity, nitroblue tetrazolium (NBT) reduction, and thymidine incorporation.

[4] = system: Human keratinocytes; assay: Epidermal cell differentiation and proliferation testing; type: cell-based; details: 0.05 to 5 μg/ml, versus control cultures
Method: Human keratinocytes are cultured according to known modifications of the system originally described by Rheinwald and Green (Cell, vol.6, p.331 (1975)). The 1α,24(S)-dihydroxyvitamin D2, dissolved in ethanol, is added to cells to yield a variety of concentrations between 0.05 and 5 μg/ml with the ethanol concentration not to exceed 0.5% v/v. Control cultures are supplemented with ethanol at a final concentration of 0.5% v/v. Differentiation and proliferation of epidermal cells in culture is examined by:
1. quantitation of cornified envelopes;
2. quantitation of cell density of cells attached to disks;
3. monitoring transglutaminase activity; or
4. monitoring DNA synthesis by incorporation of ^3H-thymidine.

[5] = system: human cancer cell lines BCA-1 or ZR-75-1 (breast) and COL-1 (colon); assay: Antiproliferative activity in human cancer cell lines (thymidine incorporation); type: cell-based; details: dose-response studies
Method: Dose-response studies are conducted with 1α,24(S)-(OH)2D2 in a battery of human cancer cell lines. These cell lines include, but are not limited to, the following: BCA-1 or ZR-75-1 (breast) and COL-1 (colon), as described by Shieh, H. L. et al. Chem. Biol. Interact., vol. 81, pp. 35-55 (1982). In this study, appropriate solvents are used as negative controls.

[6] = system: vitamin D receptor (VDR); assay: Vitamin D-inducible growth hormone production in transfected COS-1 cells; type: cell-based, Green monkey; details: for Total GH Production: averages of duplicate determinations
Method: The biological activity in vitro of chemically synthesized 1α,24(S)-(OH)2D2 and 1α,24(R)-(OH)2D2 was measured using a vitamin D-dependent transcriptional activation model system in which a vitamin D receptor (VDR)-expressing plasmid pSG5-hVDR1/3 and a plasmid p(CT4)^4TKGH containing a Growth Hormone (GH)-gene, under the control of a vitamin D-responsive element (VDRE) were co-transfected into Green monkey kidney, COS-1 cells. DNA's for these two vectors were supplied by Dr. Mark Haussler, Department of Biochemistry, University of Arizona, Tucson, Ariz.
Transfected cells were incubated with vitamin D metabolites and growth hormone production was measured.

[7] = Dermatological testing, topical treatment of dermatitis; type: in vivo, human; details: ointment 10 μg per gram, twice daily
Method: Compositions containing 1α,24(S)-dihydroxyvitamin D2 are evaluated for therapeutic efficacy of the composition in the topical treatment of dermatitis (contact and ectopic). The composition evaluated is an ointment containing 10 μg of 1α,24-dihydroxyvitamin D2 per gram of ointment in a petrolatum-almond oil base. […] The patients are treated in an out-patient clinic. They are instructed to use the preparation two times a day.
The ointment is as far as possible applied to a single lesion, or to an area of the disease. The ointment and its container are weighed before the treatment starts and returned with any unused contents for reweighing at the end of the treatment.
The area of the lesion treated is estimated and recorded, and the lesion is photographed as required, together with suitable “control” lesions. The latter are preferably lesions of similar size and stage of development, either in the vicinity of the treated lesion or symmetrically contralateral. Relevant details of the photographic procedure are recorded so as to be reproduced when the lesions are next photographed (distance, aperture, angle, background, etc.). The ointment is applied twice daily and preferably left uncovered. The “control” lesions are left untreated, but if this is not possible, the treatment used on them is noted. […]

With `C=C1/C(=C\C=C2/CCC[C@]3(C)[C@@H]([C@H](C)/C=C/[C@@](C)(O)C(C)C)CC[C@@H]23)C[C@@H](O)C[C@@H]1O` [1α,24(S)-(OH)2D2, 1α,24(S)-dihydroxyvitamin D2] as the molecule, how does the “blood level of metabolite” value ([1]; one day after a single 2 μg dose of 1α-OH-D2) read?
Its value is “undetectable”.

And the “blood level of metabolite (average)” value ([1]; one day following the last dose of 8 μg/day 1α-OH-D2 for one week)?
Its value is 9 pg/mL.

What about the “24-hour urinary calcium levels” value [2] of the same molecule?
The value was “modest increases in 24-hour urinary calcium levels”.

And the “kidney function (creatinine clearance, blood urea nitrogen)” value [2]?
The value was “does not adversely affect kidney function”.

What about the “routinely monitored serum parameters” value [2] of the same molecule?
The value was “no effect on any routinely monitored serum parameters”.

What about the serum osteocalcin levels [2] of the same molecule?
The serum osteocalcin levels was “increases in serum osteocalcin levels”.

What about the “urinary excretion of hydroxyproline” value [2] of the same molecule?
The value was “nor does it increase urinary excretion of hydroxyproline”.

What about the “differentiation of HL-60 promyelocytes to monocytes” value [3] of the same molecule?
The value was “potent activity in promoting differentiation”.

And the “DNA synthesis by incorporation of 3H-thymidine” value [4]?
The value was “lower DNA synthesis”.

And the “cell density of cells attached to disks” value [4]?
Its value is “fewer attached cells”.

What about the cornified envelopes [4] of the same molecule?
Its cornified envelopes is “more cornified envelopes”.

What about the transglutaminase activity [4] of the same molecule?
Its transglutaminase activity is “higher transglutaminase activity”.

What about the “antiproliferative activity, inhibition of thymidine incorporation” value [5] of the same molecule?
The value was “potent (and reversible) antiproliferative activity”.

What about the “Net vitamin D-inducible GH-production” value ([6]; inducer 5 × 10^−9 M) of the same molecule?
The value was 1306 ng/mL.

And the “Total GH Production” value ([6]; inducer 5 × 10^−9 M)?
The value was 1350 ng/mL.

What about the “Net vitamin D-inducible GH-production” value ([6]; inducer 5 × 10^−10 M) of the same molecule?
Its value is 381 ng/mL.

What about the “Total GH Production” value ([6]; inducer 5 × 10^−10 M) of the same molecule?
Its value is 425 ng/mL.

And the incidence of hypercalcemia [7]?
Its incidence of hypercalcemia is “insignificant incidence of hypercalcemia”.

What about the “lesion severity scores (erythema, scaling, thickness; 0 to 3)” value ([7]; four to six weeks) of the same molecule?
The value was “lower scores than the control lesions”.
